Assay results published in patent US20090215895A1, “Therapeutic and carrier molecules” (PEPLIN BIOLIPIDS PTY LTD, priority 2004, published 2009).

How the values were obtained:
[1] = tested on: HUVEC; experiment: Agonist-enhanced neutrophil adherence to HUVEC; type: cell-based, human; details: 20 μmol/l, 1 hr pre-treatment, TNF 4 hr
Protocol: FIG. 11 is a representation showing effect of β-oxa; β-thia and natural PUFA on TNF-enhanced neutrophil adherence to HUVEC. HUVEC were pre-treated with the fatty acids (20 μmol/l) for 60 min at 37° C. before being stimulated with TNF (125 U/200 μl medium) for 4 hr at 37° C. The cells were then co-incubated with neutrophils (5×10^5 cells/well) at 37° C. for 30 min and the degree of neutrophil adherence quantitated. The results are expressed as % of control and represent the mean±SEM of three separate experiments each performed in triplicate. * p<0.05, ***p<0.001, for significant differences between pre-treatment with fatty acid and control (one-way analysis of variance followed by the Dunnett test for multiple comparisons).
Adhesion of neutrophils, prepared by the rapid-single-step method (Ferrante et al, J. Immun. Methods 36:109-117, 1980), to HUVEC isolated from umbilical cords was carried out essentially as described (Huang et al, 1997 supra).
The magnitude of the suppressive effect of -MP3 was dependent on-pre-treatment time and concentration with significant effects observed with a pre-treatment time of 1 hr and a concentration of ≧5 μmol/l.

[2] = target: T1, PKC isozyme δ (Homo sapiens, UniProt Q05655); experiment: PMA-induced PKC translocation in HL-60 cells (Western blot); type: cell-based; parameters: key: +++: strong inhibition of PKC activation; −: no inhibition of PKC activation; details: 20 μM, 60 min
T1 construct: endogenous in cells; host or cells: HL-60
Protocol: (§1) The effects of nitroanalogs of PUFAs on PKC activation were determined. Lx compounds at a concentration of 20 μM were incubated with the HL-60 cell line (final condition 10^6 cells/ml) for 60 min. PKC activation was then attempted to be induced by PMA. PKC enzyme translocation was quantitated by Western blot.

[3] = target: T2, PKC isozyme ε (Homo sapiens, UniProt Q02156); experiment: as above; type: cell-based; parameters: key: +++: strong inhibition of PKC activation; −: no inhibition of PKC activation; details: 20 μM, 60 min
T2 construct: endogenous in cells; host or cells: HL-60
T2 sequence (Q02156 1-737): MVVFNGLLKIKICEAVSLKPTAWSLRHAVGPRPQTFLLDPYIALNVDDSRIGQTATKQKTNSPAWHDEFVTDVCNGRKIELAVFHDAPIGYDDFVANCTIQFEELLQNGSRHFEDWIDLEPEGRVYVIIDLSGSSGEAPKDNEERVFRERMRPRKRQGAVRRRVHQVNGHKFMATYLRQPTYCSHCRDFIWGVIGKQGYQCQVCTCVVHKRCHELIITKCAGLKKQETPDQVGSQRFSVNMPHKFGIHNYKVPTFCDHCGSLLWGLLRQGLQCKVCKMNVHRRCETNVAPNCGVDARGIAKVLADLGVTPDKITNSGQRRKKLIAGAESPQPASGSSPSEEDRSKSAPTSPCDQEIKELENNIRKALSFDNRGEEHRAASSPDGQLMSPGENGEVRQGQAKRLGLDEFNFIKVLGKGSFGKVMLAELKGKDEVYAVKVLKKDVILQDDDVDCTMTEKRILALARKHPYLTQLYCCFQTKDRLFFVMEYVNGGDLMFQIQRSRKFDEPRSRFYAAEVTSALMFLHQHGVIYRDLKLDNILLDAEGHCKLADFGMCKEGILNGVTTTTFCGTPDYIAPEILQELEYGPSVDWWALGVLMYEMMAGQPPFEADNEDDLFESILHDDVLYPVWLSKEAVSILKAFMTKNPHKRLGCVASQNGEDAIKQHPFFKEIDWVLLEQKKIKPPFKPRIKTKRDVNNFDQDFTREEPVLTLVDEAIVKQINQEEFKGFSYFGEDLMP
Protocol: as §1

[4] = target: T3, PKC isozyme β2 (Homo sapiens, UniProt P05771); experiment: as above; type: cell-based; parameters: key: +++: strong inhibition of PKC activation; −: no inhibition of PKC activation; details: 20 μM, 60 min
T3 construct: endogenous in cells; host or cells: HL-60
Protocol: as §1

[5] = target: T4, PKC isozyme β1 (Homo sapiens, UniProt P05771); experiment: as above; type: cell-based; parameters: key: +++: strong inhibition of PKC activation; −: no inhibition of PKC activation; details: 20 μM, 60 min
T4 construct: endogenous in cells; host or cells: HL-60
Protocol: as §1

[6] = target: T5, PKC isozyme α (Homo sapiens, UniProt P17252); experiment: as above; type: cell-based; parameters: key: +++: strong inhibition of PKC activation; −: no inhibition of PKC activation; details: 20 μM, 60 min
T5 construct: endogenous in cells; host or cells: HL-60
Protocol: as §1

[7] = tested on: E-selectin; experiment: Effect of lipoxygenase/cyclooxygenase inhibitors and antioxidants on suppression of E-selectin expression by β-oxa-23:4n-6; type: cell-based, human; details: HUVEC pre-treated 15 min with inhibitor, then 20 μmol/l β-oxa-23:4n-6 60 min, TNF-α 4 h
Protocol: FIG. 16 is a representation showing the effects of lipoxygenase/cyclooxygenase inhibitors and antioxidants on the modulation of E-selectin expression on HUVEC by β-oxa-23:4n-6. HUVEC were pre-treated with NDGA, baicalein, MK886, indomethacin, Vitamin E, or diluent (control) for 15 min. The cells were then further incubated with 20 μmol/l β-oxa-23:4n-6 or diluent (control) for 60 min followed by TNF-α (125 U/200 μl medium) for 4 hr and the expression of E-selectin adhesion molecule was determined. The results are expressed as % inhibition of the suppressive effect of β-oxa-23:4n-6 and represent the mean±SEM of three separate experiments each performed in quadruplicate. * p<0.01, for significant differences between pre-treatment with inhibitor and corresponding control (one-way analysis of variance followed by the Dunnett test for multiple comparisons).
Confluent second-passage HUVEC in 96-well tissue culture plates were pre-treated with 10 μmol/l NDGA (non-selective lipoxygenase inhibitor); 10 μmol/l baicalein (a specific 12-lipoxygenase inhibitor); 500 nM MK886 (an inhibitor of the 5-lipoxygenase activating protein), […] indomethacin (a cyclooxygenase inhibitor); 10 μmol/l Vitamin E (an antioxidant); or diluent (control) for 15 min. The cells were then further incubated with 20 μmol/l β-oxa-23:4n-6 or diluent (control) for 60 min followed by TNF-α (125 U) for 4 h. The expression of E-selectin adhesion molecule was determined by ELISA. While none of the inhibitors/antioxidants affected the ability of TNF to enhance E-selectin expression on HUVEC, the ability of β-oxa 23:4n-6 to suppress the action of TNF was reduced when the cells were pre-treated with either NDGA or baicalein but not with indomethacin, Vitamin E or MK886 (FIG. 16).

[8] = Formalin-induced pain test (hind paw licking time); type: in vivo; details: 30 min prior to formalin, mean of 5 animals
Protocol: Investigations of the effects of PT2 on pain induced by phenylquinolic acid (PQ writhing) and formalin have been made. In both the PQ writhing test (FIG. 3) and the formalin algesia test (FIG. 4), PT2 administered by intraperitoneal inoculation reduced pain and compared favourably with pain reduction by aspirin (oral, 100 mg/kg). In these tests, the EPUFA was administered 30 min before the pain stimulus and effects recorded over the following 20 min.
Investigations of PT2 in the formalin-induced analgesia model looking specifically at the biphasic response have also been undertaken and are shown in Table 1. It is well documented that in this model, aspirin suppresses only pain related to the inflammatory process (15-20 mins post-administration of formalin), while morphine suppresses pain in both phases of the response (0-5 min and 15-20 min).
Compounds were administered intraperationedly (ip) 30 min prior to the administration of formalin (0.02 ml, 1% solution) via subplantar injection into the right hind paw. Reduction of the induced hind paw licking time recorded during the following 0-5 min period (Phase I response) or 15-20 min period (Phase II response) was determined. The data in Table 1 are the mean responses of 5 animals in each group.

T4 sequence (P05771 whole entry): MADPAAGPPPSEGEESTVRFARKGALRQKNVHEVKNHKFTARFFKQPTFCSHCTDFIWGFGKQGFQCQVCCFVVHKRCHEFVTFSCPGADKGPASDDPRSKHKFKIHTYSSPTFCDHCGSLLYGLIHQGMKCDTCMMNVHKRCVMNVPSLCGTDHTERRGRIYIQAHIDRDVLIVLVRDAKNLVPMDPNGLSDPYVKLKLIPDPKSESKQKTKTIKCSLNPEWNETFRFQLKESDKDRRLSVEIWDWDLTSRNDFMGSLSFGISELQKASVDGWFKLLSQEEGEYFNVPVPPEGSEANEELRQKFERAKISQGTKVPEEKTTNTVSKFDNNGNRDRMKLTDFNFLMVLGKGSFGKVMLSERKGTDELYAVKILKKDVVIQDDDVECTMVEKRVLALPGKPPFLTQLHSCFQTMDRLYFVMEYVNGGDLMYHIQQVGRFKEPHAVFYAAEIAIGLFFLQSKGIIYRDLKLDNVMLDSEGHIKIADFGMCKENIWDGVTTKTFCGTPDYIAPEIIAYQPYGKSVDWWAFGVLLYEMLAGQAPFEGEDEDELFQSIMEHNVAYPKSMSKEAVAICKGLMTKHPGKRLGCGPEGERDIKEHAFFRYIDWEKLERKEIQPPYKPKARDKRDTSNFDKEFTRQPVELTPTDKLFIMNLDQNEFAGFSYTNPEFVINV
T3 sequence (P05771 1-673 isoform P05771-2): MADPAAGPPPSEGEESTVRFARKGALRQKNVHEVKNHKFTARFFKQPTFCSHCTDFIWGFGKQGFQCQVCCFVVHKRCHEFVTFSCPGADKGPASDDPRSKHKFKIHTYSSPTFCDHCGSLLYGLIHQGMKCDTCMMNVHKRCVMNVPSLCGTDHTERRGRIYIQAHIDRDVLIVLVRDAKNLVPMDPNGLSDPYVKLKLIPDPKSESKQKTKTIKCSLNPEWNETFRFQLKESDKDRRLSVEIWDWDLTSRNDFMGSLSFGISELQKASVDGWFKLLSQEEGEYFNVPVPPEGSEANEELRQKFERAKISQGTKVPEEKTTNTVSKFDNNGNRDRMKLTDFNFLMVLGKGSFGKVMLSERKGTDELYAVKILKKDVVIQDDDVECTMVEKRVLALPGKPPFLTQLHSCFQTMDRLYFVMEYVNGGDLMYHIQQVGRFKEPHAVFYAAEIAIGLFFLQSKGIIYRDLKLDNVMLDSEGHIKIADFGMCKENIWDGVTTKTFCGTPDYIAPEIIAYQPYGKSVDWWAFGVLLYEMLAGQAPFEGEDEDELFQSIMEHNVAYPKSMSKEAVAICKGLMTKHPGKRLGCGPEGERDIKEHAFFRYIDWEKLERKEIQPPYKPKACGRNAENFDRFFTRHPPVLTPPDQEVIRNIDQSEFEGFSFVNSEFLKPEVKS
T1 sequence (Q05655 whole entry): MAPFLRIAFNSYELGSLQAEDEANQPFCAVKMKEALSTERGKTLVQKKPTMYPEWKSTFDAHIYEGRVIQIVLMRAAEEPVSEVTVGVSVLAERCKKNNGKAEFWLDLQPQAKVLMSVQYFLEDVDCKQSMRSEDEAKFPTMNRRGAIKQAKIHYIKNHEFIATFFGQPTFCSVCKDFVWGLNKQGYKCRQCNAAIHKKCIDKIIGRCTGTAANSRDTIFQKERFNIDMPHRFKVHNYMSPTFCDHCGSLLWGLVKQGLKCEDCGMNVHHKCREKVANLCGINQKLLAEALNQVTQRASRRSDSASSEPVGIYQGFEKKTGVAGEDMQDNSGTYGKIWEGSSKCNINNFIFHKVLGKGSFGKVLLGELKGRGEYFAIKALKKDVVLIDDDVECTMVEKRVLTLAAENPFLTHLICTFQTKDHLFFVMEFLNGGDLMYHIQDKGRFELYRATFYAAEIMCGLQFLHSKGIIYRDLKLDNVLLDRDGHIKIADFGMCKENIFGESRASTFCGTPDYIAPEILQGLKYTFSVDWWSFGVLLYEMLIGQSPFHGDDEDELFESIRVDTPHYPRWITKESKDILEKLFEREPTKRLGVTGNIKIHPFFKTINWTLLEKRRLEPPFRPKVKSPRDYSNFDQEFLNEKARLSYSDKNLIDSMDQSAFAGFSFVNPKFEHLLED

CCCCC/C=C\C/C=C\C/C=C\CCCCCSCC(=O)O [β-thia-21:3n-6]
Inhibition of TNF-α-enhanced neutrophil adhesion to HUVEC [1]: inhibited their ability to be stimulated

CCCCC/C=C\C/C=C\C/C=C\CCCCC[N+](=O)[O-] [Lx3]
Inhibition of PKC activation, isozyme δ [2]: −
Inhibition of PKC activation, isozyme ε [3]: −
Inhibition of PKC activation, isozyme β2 [4]: +++
Inhibition of PKC activation, isozyme β1 [5]: −
Inhibition of PKC activation, isozyme α [6]: −

CCCCC/C=C\C/C=C\C/C=C\CCCCCOCC(=O)O [β-oxa-21:3n-6]
Inhibition of TNF-α-enhanced neutrophil adhesion to HUVEC [1]: inhibited their ability to be stimulated

CC(Cc1ccc(O)c(O)c1)C(C)Cc1ccc(O)c(O)c1 (stereo not shown) [NDGA, nordihydroguairetic acid]
Effect on ability of β-oxa 23:4n-6 to suppress TNF-induced E-selectin expression [7]: reduced

Vitamin E
Effect on ability of β-oxa 23:4n-6 to suppress TNF-induced E-selectin expression [7]: not

CCCCC/C=C\C/C=C\C/C=C\C/C=C\CCCCSCC(=O)O [β-thia-23:4n-6]
Inhibition of TNF-α-enhanced neutrophil adhesion to HUVEC [1]: inhibited their ability to be stimulated
Inhibition of TNF-α-enhanced neutrophil adhesion to HUVEC ([1]; listed as β-thia 23:4n-6): less active than this β-oxa compound

CC/C=C\C/C=C\C/C=C\CCCCCCCCSCC(=O)O [β-thia-21:3n-3]
Inhibition of TNF-α-enhanced neutrophil adhesion to HUVEC [1]: inhibited their ability to be stimulated

CCCCC/C=C\C/C=C\CCCCCCCC(=O)O [18:2n-6, octadecadienoic acid, reference compound]
Inhibition of TNF-α-enhanced neutrophil adhesion to HUVEC [1]: no significant effect

CC/C=C\C/C=C\C/C=C\CCCCCCCC[N+](=O)[O-] [Lx2]
Inhibition of PKC activation, isozyme δ [2]: −
Inhibition of PKC activation, isozyme ε [3]: −
Inhibition of PKC activation, isozyme β2 [4]: +++
Inhibition of PKC activation, isozyme β1 [5]: −
Inhibition of PKC activation, isozyme α [6]: −

COc1ccc2c(c1)c(CC(=O)O)c(C)n2C(=O)c1ccc(Cl)cc1 [indomethacin]
Effect on ability of β-oxa 23:4n-6 to suppress TNF-induced E-selectin expression [7]: not

CC(C)c1ccc2c(c1)c(SC(C)(C)C)c(CC(C)(C)C(=O)O)n2Cc1ccc(Cl)cc1 [MK886]
Effect on ability of β-oxa 23:4n-6 to suppress TNF-induced E-selectin expression [7]: not

CC/C=C\C/C=C\C/C=C\C/C=C\C/C=C\C/C=C\CCC[N+](=O)[O-] [Lx5]
Inhibition of PKC activation, isozyme δ [2]: −
Inhibition of PKC activation, isozyme β2 [4]: −
Inhibition of PKC activation, isozyme β1 [5]: −
Inhibition of PKC activation, isozyme α [6]: −

CN1CC[C@]23c4c5ccc(O)c4O[C@H]2[C@@H](O)C=C[C@H]3[C@H]1C5 [Morphine, reference compound]
% inhibition of pain response, Phase I (0-5 mins) ([8]; 10 mg/kg ip): 85%
% inhibition of pain response, Phase II (15-20 mins) ([8]; 10 mg/kg ip): 100%

O=c1cc(-c2ccccc2)oc2cc(O)c(O)c(O)c12 [baicalein]
Effect on ability of β-oxa 23:4n-6 to suppress TNF-induced E-selectin expression [7]: reduced

CCCCC/C=C\C/C=C\C/C=C\C/C=C\CCCC[N+](=O)[O-] [Lx4]
Inhibition of PKC activation, isozyme δ [2]: +++
Inhibition of PKC activation, isozyme ε [3]: −
Inhibition of PKC activation, isozyme β2 [4]: +++
Inhibition of PKC activation, isozyme β1 [5]: +++

CCCCCCCCCCCCCCCCCC[N+](=O)[O-] [Lx1]
Inhibition of PKC activation, isozyme δ [2]: −
Inhibition of PKC activation, isozyme ε [3]: −
Inhibition of PKC activation, isozyme β2 [4]: −
Inhibition of PKC activation, isozyme α [6]: −

CC(=O)Oc1ccccc1C(=O)O [Aspirin, reference compound]
% inhibition of pain response, Phase I (0-5 mins) ([8]; 300 mg/kg ip): 30%
% inhibition of pain response, Phase II (15-20 mins) ([8]; 300 mg/kg ip): 91%
